Experimental data from patent US6914045B2, “Glycopeptide antibiotics” (Wyeth Holdings Corporation, priority 2001, dated 2005).
Values after ≈ are worked out from the molar mass of the structure shown.

How the values were obtained:
Assay in all cases: in vitro antibacterial evaluation, MIC by broth dilution
Format in all cases: cell-based
[1] = system: Staphylococcus sp.; settings: broth dilution, 18 hours at 35° C.
Outline: (§1)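 Read-out: the lowest concentration at which the test strain fails to grow. Serial dilutions (64-0.06 μg/mL) in Muller-Hinton II […], 5×10^5 CFU/mL inoculum, NCCLS M7-A2 procedure.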

[2] = system: Enterococcus sp.; settings: broth dilution, 18 hours at 35° C.
Outline: as §1

[3] = system: Streptococcus sp.; settings: broth dilution, 18 hours at 35° C.
Outline: as §1

[4] = system: Escherichia coli; settings: 18 hours at 35° C.

Q: How did the “MIC Coagulase Negative Staphylococcus (GC 4547)” value [1] turn out when `CC(c1ccccc1)C1NC(=O)CNC(=O)C(CO)NC(=O)C(CC2CNC(=N)N2C2OC(CO)C(O)C(O)C2O)NC(=O)C(CC2CNC(=N)N2)NC(=O)C(Cc2ccc(OC3OC(CO)C(OC4OC(CO)C(OCc5ccc(OCc6ccccc6)cc5)C(O)C4O)C(O)C3O)cc2)NC1=O` (stereo not shown) [Example 246a] was run?
A: 1 µg/mL (≈ 0.685 µM)

Q: What about the “MIC Coagulase Negative Staphylococcus (GC 4548)” value [1] of the same compound?
A: 1 µg/mL (≈ 0.685 µM)

Q: And the “MIC Coagulase Negative Staphylococcus (GC 4549)” value [1]?
A: 1 µg/mL (≈ 0.685 µM)

Q: And the “MIC Coagulase Negative Staphylococcus (GC 4551)” value [1]?
A: 2 µg/mL (≈ 1.37 µM)

Q: And the “MIC Coagulase Negative Staphylococcus (GC 6257)” value [1]?
A: 2 µg/mL (≈ 1.37 µM)

Q: And the “MIC Staphylococcus aureus (ATCC 29213)” value [1]?
A: 2 µg/mL (≈ 1.37 µM)

Q: And the “MIC Staphylococcus aureus (GC 1131)” value [1]?
A: 4 µg/mL (≈ 2.74 µM)

Q: What about the “MIC Staphylococcus aureus (GC 3051)” value [1] of the same compound?
A: 1 µg/mL (≈ 0.685 µM)

Q: What about the “MIC Staphylococcus aureus (GC 3053)” value [1] of the same compound?
A: 2 µg/mL (≈ 1.37 µM)

Q: What about the “MIC Staphylococcus aureus (GC 4541)” value [1] of the same compound?
A: 1 µg/mL (≈ 0.685 µM)

Q: And the “MIC Staphylococcus aureus (GC 4542)” value [1]?
A: 1 µg/mL (≈ 0.685 µM)

Q: And the “MIC Staphylococcus aureus (GC 4544)” value [1]?
A: 2 µg/mL (≈ 1.37 µM)

Q: And the “MIC Staphylococcus aureus (GC 4545)” value [1]?
A: 2 µg/mL (≈ 1.37 µM)

Q: What about the “MIC Staphylococcus aureus-SMITH (GC 4543)” value [1] of the same compound?
A: 1 µg/mL (≈ 0.685 µM)

Q: What about the “MIC Staphylococcus haemolyticus (GC 4546)” value [1] of the same compound?
A: 1 µg/mL (≈ 0.685 µM)

Q: What about the “MIC Staphylococcus aureus (ATCC 29213)” value ([1]; strain ATCC 29213) of the same compound?
A: 2 µg/mL (≈ 1.37 µM)

Q: And the “MIC Staphylococcus aureus (GC 1131)” value ([1]; strain GC 1131)?
A: 4 µg/mL (≈ 2.74 µM)

Q: What about the “MIC Staphylococcus aureus (GC 3051)” value ([1]; strain GC 3051) of the same compound?
A: 1 µg/mL (≈ 0.685 µM)

Q: And the “MIC Staphylococcus aureus (GC 3053)” value ([1]; strain GC 3053)?
A: 2 µg/mL (≈ 1.37 µM)

Q: What about the “MIC Staphylococcus aureus (GC 4541)” value ([1]; strain GC 4541) of the same compound?
A: 1 µg/mL (≈ 0.685 µM)

Q: What about the “MIC Staphylococcus aureus (GC 4542)” value ([1]; strain GC 4542) of the same compound?
A: 1 µg/mL (≈ 0.685 µM)

Q: What about the “MIC Staphylococcus aureus-SMITH (GC 4543)” value ([1]; strain GC 4543) of the same compound?
A: 1 µg/mL (≈ 0.685 µM)

Q: And the “MIC Staphylococcus aureus (GC 4544)” value ([1]; strain GC 4544)?
A: 2 µg/mL (≈ 1.37 µM)

Q: And the “MIC Staphylococcus aureus (GC 4545)” value ([1]; strain GC 4545)?
A: 2 µg/mL (≈ 1.37 µM)

Q: What about the “MIC Staphylococcus haemolyticus (GC 4546)” value ([1]; strain GC 4546) of the same compound?
A: 1 µg/mL (≈ 0.685 µM)

Q: What about the “MIC Coagulase Negative Staphylococcus (GC 4547)” value ([1]; strain GC 4547) of the same compound?
A: 1 µg/mL (≈ 0.685 µM)

Q: What about the “MIC Coagulase Negative Staphylococcus (GC 4548)” value ([1]; strain GC 4548) of the same compound?
A: 1 µg/mL (≈ 0.685 µM)

Q: What about the “MIC Coagulase Negative Staphylococcus (GC 4549)” value ([1]; strain GC 4549) of the same compound?
A: 1 µg/mL (≈ 0.685 µM)

Q: And the “MIC Coagulase Negative Staphylococcus (GC 4551)” value ([1]; strain GC 4551)?
A: 2 µg/mL (≈ 1.37 µM)

Q: And the “MIC Coagulase Negative Staphylococcus (GC 6257)” value ([1]; strain GC 6257)?
A: 2 µg/mL (≈ 1.37 µM)

Q: What about the “MIC Enterococcus avium (GC 4558)” value [2] of the same compound?
A: 2 µg/mL (≈ 1.37 µM)

Q: What about the “MIC Enterococcus faecalis (ATCC 29212)” value [2] of the same compound?
A: 4 µg/mL (≈ 2.74 µM)

Q: What about the “MIC Enterococcus faecalis (GC 2242)” value [2] of the same compound?
A: 4 µg/mL (≈ 2.74 µM)

Q: What about the “MIC Enterococcus faecalis (GC 2691)” value [2] of the same compound?
A: 8 µg/mL (≈ 5.48 µM)

Q: And the “MIC Enterococcus faecalis (GC 3059)” value [2]?
A: 4 µg/mL (≈ 2.74 µM)

Q: And the “MIC Enterococcus faecalis (GC 4552)” value [2]?
A: 4 µg/mL (≈ 2.74 µM)

Q: What about the “MIC Enterococcus faecalis (GC 4553)” value [2] of the same compound?
A: 2 µg/mL (≈ 1.37 µM)

Q: What about the “MIC Enterococcus faecalis (GC 4554)” value [2] of the same compound?
A: 4 µg/mL (≈ 2.74 µM)

Q: And the “MIC Enterococcus faecalis (GC 6189)” value [2]?
A: 4 µg/mL (≈ 2.74 µM)

Q: What about the “MIC Enterococcus faecium (GC 2243)” value [2] of the same compound?
A: 4 µg/mL (≈ 2.74 µM)

Q: What about the “MIC Enterococcus faecium (GC 4556)” value [2] of the same compound?
A: 4 µg/mL (≈ 2.74 µM)

Q: And the “MIC Enterococcus faecium (GC 4557)” value [2]?
A: 2 µg/mL (≈ 1.37 µM)

Q: And the “MIC Enterococcus faecalis (ATCC 29212)” value ([2]; strain ATCC 29212)?
A: 4 µg/mL (≈ 2.74 µM)

Q: What about the “MIC Enterococcus faecium (GC 2243)” value ([2]; strain GC 2243) of the same compound?
A: 4 µg/mL (≈ 2.74 µM)

Q: What about the “MIC Enterococcus faecalis (GC 4552)” value ([2]; strain GC 4552) of the same compound?
A: 4 µg/mL (≈ 2.74 µM)

Q: What about the “MIC Enterococcus faecalis (GC 4553)” value ([2]; strain GC 4553) of the same compound?
A: 2 µg/mL (≈ 1.37 µM)

Q: And the “MIC Enterococcus faecalis (GC 4554)” value ([2]; strain GC 4554)?
A: 4 µg/mL (≈ 2.74 µM)

Q: What about the “MIC Enterococcus faecium (GC 4556)” value ([2]; strain GC 4556) of the same compound?
A: 4 µg/mL (≈ 2.74 µM)

Q: What about the “MIC Enterococcus faecium (GC 4557)” value ([2]; strain GC 4557) of the same compound?
A: 2 µg/mL (≈ 1.37 µM)

Q: And the “MIC Enterococcus avium (GC 4558)” value ([2]; strain GC 4558)?
A: 2 µg/mL (≈ 1.37 µM)

Q: What about the “MIC Enterococcus faecalis (GC 6189)” value ([2]; strain GC 6189) of the same compound?
A: 4 µg/mL (≈ 2.74 µM)

Q: What about the “MIC Enterococcus faecalis (GC 2242)” value ([2]; inoculum 5×10^5 CFU/mL, strain GC 2242) of the same compound?
A: 4 µg/mL (≈ 2.74 µM)

Q: What about the “MIC Enterococcus faecalis (GC 2691)” value ([2]; inoculum 5×10^5 CFU/mL, strain GC 2691) of the same compound?
A: 8 µg/mL (≈ 5.48 µM)

Q: And the “MIC Enterococcus faecalis (GC 3059)” value ([2]; inoculum 5×10^5 CFU/mL, strain GC 3059)?
A: 4 µg/mL (≈ 2.74 µM)

Q: And the “MIC Streptococcus agalactiae (GC 4564)” value [3]?
A: 0.5 µg/mL (≈ 0.343 µM)

Q: And the “MIC Streptococcus pneumoniae (ATCC 6301)” value [3]?
A: 0.25 µg/mL (≈ 0.171 µM)

Q: What about the “MIC Streptococcus pneumoniae (GC 1894)” value [3] of the same compound?
A: <0.12 µg/mL

Q: And the “MIC Streptococcus pneumoniae (GC 4565)” value [3]?
A: 0.25 µg/mL (≈ 0.171 µM)

Q: What about the “MIC Streptococcus pyogenes (GC 4563)” value [3] of the same compound?
A: 0.5 µg/mL (≈ 0.343 µM)

Q: And the “MIC Streptococcus pneumoniae (ATCC 6301)” value ([3]; inoculum 5×10^5 CFU/mL, strain ATCC 6301)?
A: 0.25 µg/mL (≈ 0.171 µM)

Q: And the “MIC Streptococcus pneumoniae (GC 1894)” value ([3]; inoculum 5×10^5 CFU/mL, strain GC 1894)?
A: <0.12 µg/mL

Q: And the “MIC Streptococcus pyogenes (GC 4563)” value ([3]; inoculum 5×10^5 CFU/mL, strain GC 4563)?
A: 0.5 µg/mL (≈ 0.343 µM)

Q: What about the “MIC Streptococcus agalactiae (GC 4564)” value ([3]; inoculum 5×10^5 CFU/mL, strain GC 4564) of the same compound?
A: 0.5 µg/mL (≈ 0.343 µM)

Q: And the “MIC Streptococcus pneumoniae (GC 4565)” value ([3]; inoculum 5×10^5 CFU/mL, strain GC 4565)?
A: 0.25 µg/mL (≈ 0.171 µM)

Q: What about the “MIC Escherichia coli (ATCC 25922)” value [4] of the same compound?
A: 16 µg/mL (≈ 11 µM)

Q: What about the “MIC Escherichia coli (GC 4559)” value [4] of the same compound?
A: 16 µg/mL (≈ 11 µM)

Q: What about the “MIC Escherichia coli (GC 4560)” value [4] of the same compound?
A: 2 µg/mL (≈ 1.37 µM)
